Data taken from the NIST ThermoML archive (doi:10.1016/j.tca.2006.01.020).
Numbers after ± are expanded uncertainties.

Conditions: 101.33 kPa, Crystal, Small (less than 1 g) adiabatic calorimetry

[Ba+2].[O-2].[O-2].[O-2].[Zr+4] [barium zirconium(IV) oxide]
Conditions	molar entropy [J/K/mol]
10 K	0.053 ± 0.024
20 K	0.666 ± 0.033
30 K	2.753 ± 0.13
40 K	6.284 ± 0.17
50 K	10.7 ± 0.23
60 K	15.67 ± 0.3
70 K	20.91 ± 0.38
80 K	26.27 ± 0.46
90 K	31.67 ± 0.59
100 K	37.05 ± 0.67
120 K	47.64 ± 0.83
140 K	57.88 ± 0.98
160 K	67.72 ± 1.1
180 K	77.16 ± 1.3
200 K	86.23 ± 1.4
220 K	94.92 ± 1.6
240 K	103.2 ± 1.7
260 K	111.2 ± 1.8
280 K	118.8 ± 1.9
298.15 K	125.5 ± 2
300 K	126.2 ± 2

[Ba+2].[Ce+4].[O-2].[O-2].[O-2] [barium cerium(IV) oxide]
Conditions	molar entropy [J/K/mol]
10 K	0.084 ± 0.025
20 K	1.242 ± 0.042
30 K	4.425 ± 0.15
40 K	9.136 ± 0.21
50 K	14.71 ± 0.29
60 K	20.8 ± 0.38
70 K	27.13 ± 0.48
80 K	33.51 ± 0.58
90 K	39.88 ± 0.71
100 K	46.2 ± 0.8
120 K	58.56 ± 0.99
140 K	70.43 ± 1.2
160 K	81.77 ± 1.4
180 K	92.55 ± 1.5
200 K	102.8 ± 1.7
220 K	112.5 ± 1.8
240 K	121.7 ± 2
260 K	130.4 ± 2.1
280 K	138.6 ± 2.2
298.15 K	145.8 ± 2.3
300 K	146.6 ± 2.4
